Reference: patent US11992011B2, “Compounds for controlling plant pathogens” (VIB VZW, priority 2017, dated 2024)

Key:
[1] = test system: Pseudomonas syringae DC3000; experiment: Pseudomonas syringae toxicity experiment in liquid culture (Example 21); type: cell-based; conditions: 100 μM, twenty-four hours of continuous exposure
Procedure: A glycerol stock of P. syringae pv. DC3000 kept at−80° C. was spotted on petri dishes containing King's B agar amended with 75 μg/ml rifampicine (Duchefa Biochemie, Haarlem, the Netherlands). The plates were incubated in the dark at 28° C. for one week. At this time point, glass test tubes containing 5 ml of liquid King's B each (without rifampicin) were inoculated with cells from the plates and placed on an orbital shaker at 200 rpm for 24 hours at 28° C. 100 μl of this liquid inoculum was transferred to fresh glass test tubes containing 5 ml of liquid King's B each (without rifampicin) amended either with 100 μM of PA or a corresponding control, which were placed on an orbital shaker at 200 rpm for 24 hours at 28° C. At this time point, the cells were diluted ten-fold with liquid King's B medium and the OD600 of the resulting suspension was determined using a spectrophotometer (BioRad SmartSpec Plus), with sterile King's B as a blanc.
Prior to inoculation, the effect of piperonylic acid on Pseudomonas syringae DC3000 itself was also verified by growing the bacteria on liquid culture amended with piperonylic acid or a corresponding control and measuring the OD600 (as described in the materials and methods section).

[2] = test system: Meloidogyne graminicola; experiment: Application regimens of PA, rice - Meloidogyne graminicola (Example 8); type: in vivo
Procedure: Seed coatings were applied by dipping seeds in a coating solution containing 20 g/I high viscosity carboxymethylcellulose (Sigma-Aldrich, Saint Louis, USA) in distilled water as well as 300 μM of the target compound. Seeds were then dried overnight at room temperature.
Infection experiments with M. graminicola were performed by inoculating host plants 14 days after transfer to SAP by introducing the desired amount of J2 juveniles next to the root system using a micro pipette. Rice plants (cv. Nipponbare or Kitaake) were inoculated with 250 J2 juveniles per plant; wheat plants (cv. Sahara) were inoculated with 600 J2 juveniles per plant. Plants were harvested 14 days after inoculation. At this point, the plants were phenotyped by measuring the shoot and root length with a ruler, counting the number of adventitious roots and in some experiments by measuring leaf area using the EasyLeafArea software (Easlon and Bloom, 2014) and by determining shoot dry mass after 72 hours of drying in an oven at 70° C. Root systems were then stained in acid fuchsine as described in (Byrd et al., 1983) and left to destain in glycerol with 1 ml/l fuming HCl added for approximately ten days. The number of galls and nematodes was then counted using a binocular microscope.
Four application regimes for PA on the rice-Meloidogyne graminicola interaction were compared: a seed coating treatment, a single high-dose foliar spray prior to infection, a single high-dose foliar spray after infection and repeated lower-dose foliar sprays throughout the growing period.
One hundred rice seeds (cv. Nipponbare) were randomly divided into five groups of twenty seeds: a control group, seeds that were coated with carboxymethylcellulose containing 300 μM PA (PA coating), a group that would be foliarly sprayed with 100 μM PA solution three times per week (PA continuous), a group that would be sprayed once with a 300 μM PA solution one day prior to nematode inoculation (PA−1 dpi) and a group that would be sprayed once with a 300 μM PA solution seven days after nematode inoculation (PA+7 dpi).
The experiment was carried out as per the materials and methods described in Materials and Methods, sections Oryza sativa (rice) and Meloidogyne graminicola culture.

[3] = test system: OsAOS2; experiment: qRT-PCR in rice roots, OsAOS2 (Example 20); type: in vivo, Oryza sativa; conditions: rice cv. Bomba root tissue; same samples as Example 19
Procedure: After quality control, qPCR was carried out.
To test whether other defense hormones might be involved, genes responsive to jasmonic acid (the biosynthesis gene OsAOS2) and auxin (the auxin conjugating enzyme OsGH3.1) were investigated. Moreover, the callose-degrading enzyme OsGNS5, downregulation of which is associated with basal defense, was also investigated. The qRT-PCR analysis was performed on the same samples used in the previous Example.

[4] = test system: tomato; experiment: Phytotoxicity of foliar spray in uninfected tomato (Example 1); type: in vivo, Solanum lycopersicum; conditions: 500 μM foliar spray, 8 plants per treatment
Procedure: Tomato seeds, cv. Moneymaker (Vreeken's Zaden, Dordrecht, the Netherlands) were sown on autoclaved potting soil coveed with polyethylene film and placed at 24° C. for eight days. Seedlings were then transferred to individual SAP-filled pots and placed in a growth chamber at 24° C. Plants were watered three times per week with 25 ml of quarter-strength Hoagland solution for the first two weeks and half-strength thereafter.
Unless otherwise mentioned, all chemicals for nematode experiments were applied as a foliar spray consisting of the target compound at a concentration of 300 μM together with 0.1% (v/v) Tween 20 surfactant (Calbiochem) in distilled water. Again unless otherwise mentioned, all treatments for the nematode experiments were carried out three times: one and eight days before pathogen inoculation and seven days after pathogen inoculation. In all cases, plants were sprayed until run-off with an atomizer.
Short-term phytotoxicity experiments (Example 1) were analyzed using non-parametric methods. For each variable, overall significance was determined using the Kruskal-Wallis test (Kruskal and Wallis, 1952), followed by a posthoc Conover-Iman test (Conover and Iman, 1981) with Hommel multiplicity correction (Hommel, 1988) if the Kruskal-Wallis test was significant. When only two groups were present, the Wilcoxon-Mann-Whitney test was used (Mann and Whitney, 1947).
To test whether C4H inhibitors induce phytotoxic effects in crops, uninfected tomato, wheat and carrot were treated with piperonylic acid (PA), 4-iodobenzoic acid (4-IBA) and piperic acid (PIA) at a concentration of 500 μM through foliar application. At harvest, leaf area (or shoot length in the case of wheat) and primary root length were recorded. The BBCH developmental stage (Lancashire et al., 1991), a measure of developmental retardation, was used to test for effects on development. Finally, the presence of visible signs of phytotoxicity such as chlorosis, discoloration or necrosis was recorded.

[5] = PA +7 dpi: sprayed once with 300 μM PA seven days after inoculation, n = 8
[6] = PA coating: seeds coated with carboxymethylcellulose solution containing 300 μM PA, n = 7
[7] = PA continuous: sprayed three times a week with 100 μM PA, n = 9
[8] = PA −1 dpi: sprayed once with 300 μM PA one day before inoculation, n = 8

O=C(O)c1ccc2c(c1)OCO2 [PA, Piperonylic acid]
effect on bacterial growth [1]: no effect on bacterial growth
OD600 ([1]; ten-fold diluted culture, printed 0.737 vs. 0.757): 0.737
Fraction of small galls [2, 5]: 0.91 ± 0.11
Number of galls [2, 5]: 18.1 ± 13.6
Number of galls per AR [2, 5]: 1.1 ± 0.6
Fraction of small galls [2, 6]: 0.96 ± 0.04
Number of galls [2, 6]: 19.0 ± 11.0
Number of galls per AR [2, 6]: 1.3 ± 0.8
Fraction of small galls [2, 7]: 0.95 ± 0.08
Number of galls [2, 7]: 18.1 ± 13.1
Number of galls per AR [2, 7]: 1.2 ± 0.7
mortality of seedlings from seeds coated with PA ([2]; PA seed coating, two out of ten in the control group, not statistically significant): four of ten
Fraction of small galls [2, 8]: 0.91 ± 0.06
Number of galls [2, 8]: 25.3 ± 9.4
Number of galls per AR [2, 8]: 1.4 ± 0.5
Fold change vs. control, OsAOS2 expression [3]: 0.71
Leaf Area ([4]; mean ± standard deviation): 11.83 ± 1.70 cm^2
Root length ([4]; mean ± standard deviation): 7.95 ± 1.83 cm
BBCH stage ([4]; median ± interquartile range): 102 ± 1.0
